In patent US12071436B2, “Anti-parasitic compounds and uses thereof” (Memorial Sloan-Kettering Cancer Center, priority 2016, dated 2024):
Read-outs that look alike come from different tables or passages of the source.

What was measured:
Cytotoxicity (Table 1) = assay type: cell-based
[1] = test system: Trypanosoma cruzi parasites; experiment: Trypanosoma cruzi in vitro IC50 (structure-activity analyses); assay type: cell-based; conditions: infection with Trypanosoma cruzi parasites for 72 hours and treatment with the compound for 72 hours
Description: Select compounds described herein were evaluated for structure-activity analyses in vitro.

[2] = Plasma pharmacokinetics and liver distribution study in female BALB/c mice; assay type: in vivo, mouse; conditions: 100 mg/kg, female BALB/c mice; for Tmax: mouse, plasma, read-out: Tmax (plasma)
Description: A plasma pharmacokinetics and liver distribution study of selected compounds, including Pyrrolopyridine-008 (2015-foleyc-216), Pyrrolopyridine-D20-ent (2015-foleyc-217), and Pyrrolopyridine-M03 (2015-foleyc-218), in female BALB/c mice was conducted following a single intraperitoneal and oral administration. […] The blood samples were collected from a set of […] mice at each time point in labeled micro centrifuge tube containing K2EDTA as anticoagulant. Plasma samples were separated by centrifugation at 4000 rpm for 10 min and stored below −70° C. until bioanalysis. After collection of blood sample, animals were humanely euthanized by carbon dioxide asphyxiation to collect liver from Group 1 and Group 2 at all the time points. The collected tissues were rinsed in PBS and were homogenized with nine times of liver weight in ice cold phosphate buffer saline (pH 7.4) and stored below −70° C. until bio-analysis. Total homogenate volume was ten times the tissue weight. All samples were processed for analysis by protein precipitation using acetonitrile and analyzed with fit-for-purpose LC-MS/MS method (LLOQ: 2.01 ng/mL for plasma and 50.30 ng/g for liver). Pharmacokinetic parameters were calculated using the non-compartmental analysis tool of Phoenix WinNonlin® (Version 6.3).

[3] = test system: HepG2 human hepatoma cells; experiment: HepG2 cytotoxicity, MTS cell proliferation assay; assay type: cell-based; conditions: 48 h, n=1
Description: (§1) Select compounds described herein were evaluated for structure-activity analyses for anti-plasmodial activity in vitro. For Dd2 EC50 (M), calculations were for n=3. For HepG2 EC50 (M), calculations were for n=1. For the human microsomal stability determination, t was 60 minutes.
Selected compounds were evaluated for cytotoxicity using HepG2 human hepatoma cells. A 384-well clear bottom plate was seeded with 2,500 cells/well and incubated for 24 h. Serial dilutions of the compound (were added to the plate and plates were incubated for an additional 48 h. Viability of cells were assessed by MTS [(3-(4,5-dimethylthiazol-2-yl)-5-(3-carboxymethoxyphenyl)-2-(4-sulfophenyl)-2H-tetrazolium) cell proliferation assay (CellTiter 96® Aqueous non-radioactive cell proliferation assay, Promega) (See Cory et al., Cancer Communications, 3, 1991, p. 207-212).

P. falciparum Dd2 = experiment: Anti-plasmodial growth inhibition, SYBR green I-based DNA quantification; assay type: cell-based; conditions: Plasmodium falciparum, 72 h incubation, n=3
Description: as §1
Different dilutions of the compound in RPMI 1640 (Life Technologies) from a stock of 10 mM in dimethyl sulfoxide (DMSO) were added to the culture at a 1% parasitemia and 2% hematocrit in 96-well black plates (Santa Cruz Biotechnology). Maximum DMSO concentration in the culture never exceeded 0.25%. Chloroquine at 1 μM was used as a positive control to determine the baseline value. Following 72 h incubation at 37° C., the ability of the compounds to inhibit growth of the parasite was determined by a SYBR green I-based DNA quantification assay (See Bennett et al., 2004, Chemother. 48, 1807-1810; see also Johnson et al., 2007, Antimicrob. Agents. Chemother. 51, 1926-1933; Smilkstein et al., 2004, Antimicrob. Agents. Chemother. 48, 1803-1806). EC50 was calculated (n=3) from a dose response curve that was generated from a concentration range of 0-20 μM using GraphPad Prism v5.0.

[4] = ip, single intraperitoneal dose

SMILES	IC50 [1] [nM]	EC50 (P. falciparum Dd2) [µM]	Cytotoxicity (Cytotoxicity (Table 1)) [µM]	EC50 [3] [µM]	further results
CCOC(=O)c1cc2c(c(-c3cccc(C#CCN(C)C)c3)n1)CN([S@+]([O-])C(C)(C)C)C2 [Compound 49, Ethyl (R)-2-(tert-butylsulfinyl)-4-(3-(3-(dimethylamino)prop-1-yn-1-yl)phenyl)-2,3-dihydro-1H-pyrrolo[3,4-c]pyridine-6-carboxylate]	862		>10		
CC(C)NC(=O)N1Cc2cc(C(=O)NCC(F)(F)F)nc(-c3ccccc3)c2[C@H]1CCO [2015-foleyc-267, (R)-3-(2-hydroxyethyl)-N^2-isopropyl-4-phenyl-N^6-(2,2,2-trifluoroethyl)-1,3-dihydro-2H-pyrrolo[3,4-c]pyridine-2,6-dicarboxamide]		3.5 ± 0.97		> 100	
CC(C)NC(=O)N1Cc2cc(C(=O)NCc3ccccc3F)nc(-c3cccc(-c4cccnc4)c3)c2[C@H]1CCO [2015-foleyc-254, (R)-N^6-(2-fluorobenzyl)-3-(2-hydroxyethyl)-N^2-isopropyl-4-(3-(pyridin-3-yl)phenyl)-1,3-dihydro-2H-pyrrolo[3,4-c]pyridine-2,6-dicarboxamide]		9.95 ± 0.89		71	
CC(C)(C)[S@@+]([O-])N1Cc2cc(C(=O)NCc3ccccc3F)nc(-c3cccc(-c4cc5ccccc5o4)c3)c2[C@H]1CCO [2015-foleyc-220, (R)-4-(3-(benzofuran-2-yl)phenyl)-2-((R)-tert-butylsulfinyl)-N-(2-fluorobenzyl)-3-(2-hydroxyethyl)-2,3-dihydro-1H-pyrrolo[3,4-c]pyridine-6-carboxamide]		> 25		> 100	
CC(C)NC(=O)N1Cc2cc(C(=O)NCc3ccc4c(c3)OCO4)nc(-c3cccc(-c4cc5ccccc5o4)c3)c2[C@H]1CCO [2015-foleyc-241, (R)-N^6-(benzo[d][1,3]dioxol-5-ylmethyl)-4-(3-(benzofuran-2-yl)phenyl)-3-(2-hydroxyethyl)-N^2-isopropyl-1,3-dihydro-2H-pyrrolo[3,4-c]pyridine-2,6-dicarboxamide]		4.99 ± 0.59		> 100	
CC(C)NC(=O)N1Cc2cc(C(=O)NCC(F)(F)F)nc(-c3cccc(-c4cccnc4)c3)c2[C@H]1CCO [2015-foleyc-255, (R)-3-(2-hydroxyethyl)-N2-isopropyl-4-(3-(pyridin-3-yl)phenyl)-N6-(2,2,2-trifluoroethyl)-1,3-dihydro-2H-pyrrolo[3,4-c]pyridine-2,6-dicarboxamide]		15.5 ± 0.75		> 100	
CC(C)NC(=O)N1Cc2cc(C(=O)NCc3ccc4c(c3)OCO4)nc(-c3cccc(-c4cccnc4)c3)c2[C@H]1CCO [2015-foleyc-253, (R)-N^6-(benzo[d][1,3]dioxol-5-ylmethyl)-3-(2-hydroxyethyl)-N^2-isopropyl-4-(3-(pyridin-3-yl)phenyl)-1,3-dihydro-2H-pyrrolo[3,4-c]pyridine-2,6-dicarboxamide]		5.73 ± 0.33		62	

More lines, main results first:

IC50 [1] [nM]	EC50 (P. falciparum Dd2) [µM]	SMILES	Cytotoxicity (Cytotoxicity (Table 1)) [µM]	EC50 [3] [µM]	further results
495		CN(C)CC#Cc1cccc(-c2nc(C(=O)NCc3ccc4c(c3)OCO4)cc3c2CN([S@+]([O-])C(C)(C)C)C3)c1 [Compound 57, (R)-N-(Benzo[d][1,3]dioxol-5-ylmethyl)-2-(tert-butylsulfinyl)-4-(3-(3-(dimethylamino)prop-1-yn-1-yl)phenyl)-2,3-dihydro-1H-pyrrolo[3,4-c]pyridine-6-carboxamide]	>10		
	1.45 ± 0.28	CC(C)(C)[S@@+]([O-])N1Cc2cc(C(=O)NCc3ccccc3F)nc(-c3ccccc3)c2[C@H]1CCO [2015-foleyc-218, (R)-2-((R)-tert-butylsulfinyl)-N-(2-fluorobenzyl)-3-(2-hydroxyethyl)-4-phenyl-2,3-dihydro-1H-pyrrolo[3,4-c]pyridine-6-carboxamide]		> 100	Tmax [2, 4]: 60 min; Tmax ([2]; single oral dose): 30 min; plasma concentrations quantifiable till ([2]; single intraperitoneal dose): 12 h; plasma concentrations quantifiable till ([2]; single oral dose): 12 h
43.7		CN(C)CC#Cc1cccc(-c2nc(C(=O)NCc3ccc4c(c3)OCO4)cc3c2[C@@H](CCO)N([S@@+]([O-])C(C)(C)C)C3)c1 [Compound 85, (R)-N-(Benzo[d][1,3]dioxol-5-ylmethyl)-2-((S)-tert-butylsulfinyl)-4-(3-(3-(dimethyl-amino)prop-1-yn-1-yl)phenyl)-3-(2-hydroxyethyl)-2,3-dihydro-1H-pyrrolo[3,4-c]pyridine-6-carboxamide]	>10		
	2.19 ± 0.32	CC(C)(C)[S@@+]([O-])N1Cc2cc(C(=O)NCc3ccc4c(c3)OCO4)nc(-c3ccccc3)c2[C@H]1CCO [2015-foleyc-217, (R)-N-(benzo[d][1,3]dioxol-5-ylmethyl)-2-((R)-tert-butylsulfinyl)-3-(2-hydroxyethyl)-4-phenyl-2,3-dihydro-1H-pyrrolo[3,4-c]pyridine-6-carboxamide]		63	Tmax [2, 4]: 60 min; Tmax ([2]; single oral dose): 30 min; plasma concentrations quantifiable till ([2]; single intraperitoneal dose): 12 h; plasma concentrations quantifiable till ([2]; single oral dose): 12 h
28		CN(C)CC#Cc1cccc(-c2nc(C(=O)N[C@H]3CCN(Cc4ccccc4)C3)cc3c2[C@@H](CCO)N([S@+]([O-])C(C)(C)C)C3)c1 [Compound 89, (R)-N-((S)-1-benzylpyrrolidin-3-yl)-2-((R)-tert-butylsulfinyl)-4-(3-(3-(dimethylamino)prop-1-yn-1-yl)phenyl)-3-(2-hydroxyethyl)-2,3-dihydro-1H-pyrrolo[3,4-c]pyridine-6-carboxamide]	>10		
8500		CCOC(=O)c1cc2c(c(-c3cccc(C#CCN(C)C)c3)n1)[C@@H](CCO)N([S@+]([O-])C(C)(C)C)C2 [Compound 90, Ethyl (R)-2-((R)-tert-butylsulfinyl)-4-(3-(3-(dimethylamino)prop-1-yn-1-yl)phenyl)-3-(2-hydroxyethyl)-2,3-dihydro-1H-pyrrolo[3,4-c]pyridine-6-carboxylate]	>10		
> 10000		CC(C)(C)[S@@+]([O-])N1Cc2cc(C(=O)NCc3ccc4c(c3)OCO4)nc(-c3cccc(Br)c3)c2[C@H]1CCO [Compound 77, (R)-N-(Benzo[d][1,3]dioxol-5-ylmethyl)-4-(3-bromophenyl)-2-((R)-tert-butylsulfinyl)-3-(2-hydroxyethyl)-2,3-dihydro-1H-pyrrolo[3,4-c]pyridine-6-carboxamide]	>10		
> 10000		CCOC(=O)c1cc2c(c(-c3cccc(Br)c3)n1)[C@@H](CCO)N([S@+]([O-])C(C)(C)C)C2 [Compound 51, Ethyl (R)-4-(3-bromophenyl)-2-((R)-tert-butylsulfinyl)-3-(2-hydroxyethyl)-2,3-dihydro-1H-pyrrolo[3,4-c]pyridine-6-carboxylate]	>10		
2850		CC(C)(C)[S@@+]([O-])N1Cc2cc(C(=O)N[C@@H]3CCN(Cc4ccccc4)C3)nc(-c3cccc(Br)c3)c2[C@H]1CCO [Compound 86, (R)-N-((R)-1-Benzylpyrrolidin-3-yl)-4-(3-bromophenyl)-2-((R)-tert-butylsulfinyl)-3-(2-hydroxyethyl)-2,3-dihydro-1H-pyrrolo[3,4-c]pyridine-6-carboxamide]	>10		
